The source of these data is ChEMBL document CHEMBL1944605, “Amides of xanthurenic acid as zinc-dependent inhibitors of Lp-PLA(2)” (Bioorg Med Chem Lett, 2012).

One assay concerns the target T1, Platelet-activating factor acetylhydrolase (Homo sapiens, UniProt Q13093).
T1 sequence (Q13093 whole entry): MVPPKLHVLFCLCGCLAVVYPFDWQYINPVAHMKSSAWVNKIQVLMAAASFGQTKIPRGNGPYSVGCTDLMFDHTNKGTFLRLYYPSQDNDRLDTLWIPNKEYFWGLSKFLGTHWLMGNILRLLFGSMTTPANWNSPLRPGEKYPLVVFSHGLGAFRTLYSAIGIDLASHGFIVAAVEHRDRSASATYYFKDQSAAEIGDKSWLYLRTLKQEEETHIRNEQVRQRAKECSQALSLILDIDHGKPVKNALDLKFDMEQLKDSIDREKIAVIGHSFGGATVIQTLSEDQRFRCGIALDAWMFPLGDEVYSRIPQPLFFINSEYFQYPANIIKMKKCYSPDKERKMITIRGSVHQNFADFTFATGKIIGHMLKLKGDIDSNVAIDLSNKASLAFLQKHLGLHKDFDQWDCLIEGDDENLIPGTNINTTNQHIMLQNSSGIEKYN
As to the kind of experiment: Inhibition of human plasma lipoprotein-associated phospholipase A2 using 2-thio-PAF as substrate preincubated for 20 mins measured 1 hr post substrate addition by spectrophotometric analysis.
Consider `Oc1cccc2cccnc12` [OXYQUINOLINE], for which the IC50 is > 100 µM.

`O=C(Nc1ccccc1)c1ccc2cccc(O)c2n1`: the IC50 is > 100 µM.

`O=C(O)c1cc(O)c2cccc(O)c2n1` [XANTHURENATE]: the IC50 was > 100 µM.

The target of a further assay is T1, Platelet-activating factor acetylhydrolase. As to the kind of experiment: Inhibition of human plasma lipoprotein-associated phospholipase A2 using 2-thio-PAF as substrate preincubated for 20 mins measured 1 hr post substrate addition by spectrophotometric analysis.
Regarding `Oc1cccc2cccnc12` [OXYQUINOLINE], the IC50 is > 100 µM.

Consider `O=C(Nc1ccccc1)c1ccc2cccc(O)c2n1`, for which the IC50 was > 100 µM.

With `O=C(O)c1cc(O)c2cccc(O)c2n1` [XANTHURENATE], the IC50 is > 100 µM.
